Reference: article PMC6662683, “Identification of the Catechin Uptake Transporter Responsible for Intestinal Absorption of Epigallocatechin Gallate in Mice” (Scientific Reports, 2019)

Key:
[1] = target: T1, diastrophic dysplasia sulfate transporter (DTDST) (Mus musculus, UniProt Q62273); test: inhibition of EGCg uptake into stably expressing CHO-K1 cells, LC-MS/MS; assay type: cell-based; conditions: 100 μM DIDS 1 h before EGCg; 500 μM EGCg, 30 min (Figure 4 legend; methods give 100 μM EGCg); pH 6.0, 37 °C
T1 construct: gene Slc26a2; full open reading frame from mouse ileal epithelial cDNA, C-terminal FLAG tag, stably expressed in CHO-K1 cells (pcDNA3.1(+))
T1 sequence (Q62273 1-739): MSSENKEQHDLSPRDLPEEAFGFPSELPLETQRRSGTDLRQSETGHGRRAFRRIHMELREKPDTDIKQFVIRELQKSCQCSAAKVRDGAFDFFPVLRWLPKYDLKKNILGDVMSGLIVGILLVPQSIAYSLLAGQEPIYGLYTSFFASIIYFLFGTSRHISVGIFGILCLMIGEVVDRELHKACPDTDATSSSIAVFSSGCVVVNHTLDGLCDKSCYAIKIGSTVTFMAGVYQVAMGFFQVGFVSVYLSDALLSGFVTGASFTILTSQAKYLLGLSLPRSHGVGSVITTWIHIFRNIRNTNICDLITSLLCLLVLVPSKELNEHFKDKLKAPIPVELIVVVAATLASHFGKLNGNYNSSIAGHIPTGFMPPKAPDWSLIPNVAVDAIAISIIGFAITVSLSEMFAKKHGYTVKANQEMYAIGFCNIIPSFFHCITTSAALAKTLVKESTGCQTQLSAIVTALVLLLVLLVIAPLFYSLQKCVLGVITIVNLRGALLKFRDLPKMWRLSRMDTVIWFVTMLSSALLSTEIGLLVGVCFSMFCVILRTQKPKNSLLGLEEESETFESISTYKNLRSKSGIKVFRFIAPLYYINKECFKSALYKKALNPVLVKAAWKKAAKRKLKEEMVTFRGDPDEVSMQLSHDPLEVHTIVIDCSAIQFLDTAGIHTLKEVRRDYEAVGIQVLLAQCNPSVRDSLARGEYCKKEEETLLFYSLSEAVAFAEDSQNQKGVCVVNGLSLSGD

[2] = substrate: O=C(O[C@@H]1Cc2c(O)cc(O)cc2O[C@@H]1c1cc(O)c(O)c(O)c1)c1cc(O)c(O)c(O)c1; test: EGCg uptake into stably expressing CHO-K1 cells, mock subtracted, LC-MS/MS; assay type: cell-based, Mus musculus; conditions: Hanks' balanced salt solution pH 6.0, 37 °C, 30 min, 1-1000 μM EGCg

Q: Which “inhibition of EGCg uptake into stably expressing CHO-K1 cells, LC-MS/MS” value [1] does the source give for `O=S(=O)(O)c1cc(N=C=S)ccc1/C=C/c1ccc(N=C=S)cc1S(=O)(=O)O` [4,4′-diisothiocyano-2,2′-stilbenedisulfonic acid] here?
A: compared with mock cells was nullified in the presence of the DTDST inhibitor DIDS

B1: diastrophic dysplasia sulfate transporter (DTDST) (Mus musculus) (protein)
chain: MSSENKEQHDLSPRDLPEEAFGFPSELPLETQRRSGTDLRQSETGHGRRAFRRIHMELREKPDTDIKQFVIRELQKSCQCSAAKVRDGAFDFFPVLRWLPKYDLKKNILGDVMSGLIVGILLVPQSIAYSLLAGQEPIYGLYTSFFASIIYFLFGTSRHISVGIFGILCLMIGEVVDRELHKACPDTDATSSSIAVFSSGCVVVNHTLDGLCDKSCYAIKIGSTVTFMAGVYQVAMGFFQVGFVSVYLSDALLSGFVTGASFTILTSQAKYLLGLSLPRSHGVGSVITTWIHIFRNIRNTNICDLITSLLCLLVLVPSKELNEHFKDKLKAPIPVELIVVVAATLASHFGKLNGNYNSSIAGHIPTGFMPPKAPDWSLIPNVAVDAIAISIIGFAITVSLSEMFAKKHGYTVKANQEMYAIGFCNIIPSFFHCITTSAALAKTLVKESTGCQTQLSAIVTALVLLLVLLVIAPLFYSLQKCVLGVITIVNLRGALLKFRDLPKMWRLSRMDTVIWFVTMLSSALLSTEIGLLVGVCFSMFCVILRTQKPKNSLLGLEEESETFESISTYKNLRSKSGIKVFRFIAPLYYINKECFKSALYKKALNPVLVKAAWKKAAKRKLKEEMVTFRGDPDEVSMQLSHDPLEVHTIVIDCSAIQFLDTAGIHTLKEVRRDYEAVGIQVLLAQCNPSVRDSLARGEYCKKEEETLLFYSLSEAVAFAEDSQNQKGVCVVNGLSLSGD
notes: full open reading frame from mouse ileal epithelial cDNA, C-terminal FLAG tag, stably expressed in CHO-K1 cells (pcDNA3.1(+))
Q: B1 was tested. Which Km [2] did it give?
A: 576 ± 244 µM
